Source: patent US11247990B1, “Bicyclic fused pyridine compounds as inhibitors of TAM kinases” (ARRAY BIOPHARMA INC., priority 2017, dated 2022)
Where a name gives a salt, the structure may show the parent alone.

Tests used:
Details in all cases: averaged IC50
[1] = target: His-tagged recombinant human AXL cytoplasmic domain (Homo sapiens (Human), UniProt P30530); experiment: AXL Enzyme Assay (LanthaScreen Eu Kinase Binding, TR-FRET)
How it was run: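 LanthaScreen Eu kinase binding format, incubated 60 min at 22 °C and read by TR-FRET dual-wavelength emission ratio as percent of control. IC50 taken where a 4-parameter logistic fit crosses 50 POC.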

[2] = target: His-tagged recombinant human MER cytoplasmic domain (Homo sapiens (Human), UniProt Q12866); experiment: MER Enzyme Assay (LanthaScreen Eu Kinase Binding, TR-FRET)
His-tagged recombinant human MER cytoplasmic domain, sequence (Q12866 527-999): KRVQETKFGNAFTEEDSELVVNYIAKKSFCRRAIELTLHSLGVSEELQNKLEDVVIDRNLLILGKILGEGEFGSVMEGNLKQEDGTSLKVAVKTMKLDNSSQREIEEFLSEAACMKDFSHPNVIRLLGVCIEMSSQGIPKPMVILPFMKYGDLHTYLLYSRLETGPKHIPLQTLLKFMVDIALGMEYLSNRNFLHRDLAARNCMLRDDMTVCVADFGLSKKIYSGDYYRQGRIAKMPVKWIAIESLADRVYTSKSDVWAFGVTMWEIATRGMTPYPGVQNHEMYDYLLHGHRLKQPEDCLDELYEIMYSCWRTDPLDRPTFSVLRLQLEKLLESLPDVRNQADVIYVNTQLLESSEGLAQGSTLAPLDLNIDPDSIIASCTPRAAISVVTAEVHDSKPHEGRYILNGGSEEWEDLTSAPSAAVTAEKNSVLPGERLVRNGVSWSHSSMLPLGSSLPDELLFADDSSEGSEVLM
How it was run: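 LanthaScreen Eu kinase binding (tracer displacement) assay with His-tagged human MER cytoplasmic domain, 60 min incubation at 22 °C. TR-FRET dual-wavelength emission ratio converted to percent of control; IC50 is where the 4-parameter logistic fit crosses 50 POC.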

[3] = target: GST-tagged recombinant human TYRO3 kinase domain (Homo sapiens (Human), UniProt Q06418); experiment: TYRO3 Enzyme Assay (LanthaScreen Eu Kinase Binding, TR-FRET)
GST-tagged recombinant human TYRO3 kinase domain, sequence (Q06418 518-790): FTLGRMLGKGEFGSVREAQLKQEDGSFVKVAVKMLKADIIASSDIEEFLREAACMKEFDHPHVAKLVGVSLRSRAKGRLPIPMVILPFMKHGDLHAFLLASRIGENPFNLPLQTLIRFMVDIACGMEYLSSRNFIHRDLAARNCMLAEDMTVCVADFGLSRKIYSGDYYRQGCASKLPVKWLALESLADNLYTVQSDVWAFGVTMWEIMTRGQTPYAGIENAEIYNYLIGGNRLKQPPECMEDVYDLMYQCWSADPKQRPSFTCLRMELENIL
How it was run: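 LanthaScreen Eu binding (tracer displacement) format read by TR-FRET after 60 min at 22 °C. Emission ratio converted to percent of control; IC50 taken where a 4-parameter logistic fit crosses 50 POC.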

His-tagged recombinant human AXL cytoplasmic domain, sequence (P30530 473-894): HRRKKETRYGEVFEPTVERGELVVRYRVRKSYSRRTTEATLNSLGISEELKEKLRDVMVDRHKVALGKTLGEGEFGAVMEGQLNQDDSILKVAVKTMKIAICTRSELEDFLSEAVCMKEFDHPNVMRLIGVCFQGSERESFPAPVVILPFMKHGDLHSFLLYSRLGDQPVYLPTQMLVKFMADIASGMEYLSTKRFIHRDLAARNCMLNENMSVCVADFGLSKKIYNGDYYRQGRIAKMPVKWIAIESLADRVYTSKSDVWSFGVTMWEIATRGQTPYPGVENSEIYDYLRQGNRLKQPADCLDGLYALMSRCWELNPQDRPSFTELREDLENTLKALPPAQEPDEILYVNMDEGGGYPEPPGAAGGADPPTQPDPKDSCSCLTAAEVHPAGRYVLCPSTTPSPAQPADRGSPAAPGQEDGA

Row | IC50 [1] [nM] | IC50 [2] [nM] | IC50 [3] [nM] | Compound
1 | < 10 | < 10 | < 10 | CNc1cc2c(cn1)c(-c1cnn(C)c1)nn2[C@H]1CC[C@@H](Oc2nccnc2C(F)(F)F)CC1 [Example 171, N-methyl-3-(1-methyl-1H-pyrazol-4-yl)-1-((1s,4s)-4-((3-(trifluoromethyl)pyrazin-2-yl)oxy)cyclohexyl)-1H-pyrazolo[4,3-c]pyridin-6-amine]
2 | < 10 | < 10 | < 10 | CCNc1cc2c(cn1)c(-c1cnn(C)c1)nn2[C@H]1CC[C@@H](Oc2cccnc2F)CC1 [Example 183, N-ethyl-1-((1s,4s)-4-((2-fluoropyridin-3-yl)oxy)cyclohexyl)-3-(1-methyl-1H-pyrazol-4-yl)-1H-pyrazolo[4,3-c]pyridin-6-amine]
3 | < 10 | < 10 | < 10 | CCNc1cc2c(cn1)c(-c1cnn(C)c1)nn2[C@H]1CC[C@@H](Oc2cccnc2C#N)CC1 [Example 188, 3-(((1s,4s)-4-(6-(ethylamino)-3-(1-methyl-1H-pyrazol-4-yl)-1H-pyrazolo[4,3-c]pyridin-1-yl)cyclohexyl)oxy)picolinonitrile]
4 | < 10 | < 10 | 10 to 100 | CCNc1cc2c(cn1)c(-c1cnn(C)c1)nn2[C@H]1CC[C@@H](Oc2nccnc2CC)CC1 [Example 190, N-ethyl-1-((1s,4s)-4-((3-ethylpyrazin-2-yl)oxy)cyclohexyl)-3-(1-methyl-1H-pyrazol-4-yl)-1H-pyrazolo[4,3-c]pyridin-6-amine]
5 | < 10 | < 10 | < 10 | CCNc1cc2c(cn1)c(-c1cnn(C)c1)nn2[C@H]1CC[C@@H](Oc2nccnc2C(F)(F)F)CC1 [Example 194, N-ethyl-3-(1-methyl-1H-pyrazol-4-yl)-1-((1s,4s)-4-((3-(trifluoromethyl)pyrazin-2-yl)oxy)cyclohexyl)-1H-pyrazolo[4,3-c]pyridin-6-amine]
6 | < 10 | < 10 | 10 to 100 | CCNc1cc2c(cn1)c(-c1cnn(C)c1)nn2[C@H]1CC[C@@H](Oc2nccc(C(F)(F)F)c2F)CC1 [Example 198, N-ethyl-1-((1s,4s)-4-((3-fluoro-4-(trifluoromethyl)pyridin-2-yl)oxy)cyclohexyl)-3-(1-methyl-1H-pyrazol-4-yl)-1H-pyrazolo[4,3-c]pyridin-6-amine]
7 | < 10 | < 10 | < 10 | C#Cc1ncccc1OC1CCC(n2nc(-c3cnn(C)c3)c3cnc(NCC)cc32)CC1 (stereo not drawn) [Example 199, N-ethyl-1-((1s,4s)-4-((2-ethynylpyridin-3-yl)oxy)cyclohexyl)-3-(1-methyl-1H-pyrazol-4-yl)-1H-pyrazolo[4,3-c]pyridin-6-amine]

The remaining lines, values behind:

Row | Compound | IC50 [1] [nM] | IC50 [2] [nM] | IC50 [3] [nM]
8 | CCNc1cc2c(cn1)c(-c1cnn(C(C)(C)C#N)c1)nn2[C@H]1CC[C@@H](Oc2cccnc2C(F)(F)F)CC1 [Example 164, 2-(4-(6-(ethylamino)-1-((1s,4s)-4-((2-(trifluoromethyl)pyridin-3-yl)oxy)cyclohexyl)-1H-pyrazolo[4,3-c]pyridin-3-yl)-1H-pyrazol-1-yl)-2-methylpropanenitrile] | < 10 | < 10 | < 10
9 | CNc1cc2c(cn1)c(-c1cnn(C)c1)nn2[C@H]1CC[C@@H](Oc2cccnc2C(C)C)CC1 [Example 165, 1-((1 s,4s)-4-((2-isopropylpyridin-3-yl)oxy)cyclohexyl)-N-methyl(1-methyl-1H-pyrazol-4-yl)-1H-pyrazolo[4,3-c]pyridin-6-amine] | < 10 | < 10 | 10 to 100
10 | CNc1cc2c(cn1)c(-c1cnn(C)c1)nn2[C@H]1CC[C@@H](Oc2nccc(C(F)(F)F)c2F)CC1 [Example 173, 1-((1s,4s)-4-((3-fluoro-4-(trifluoromethyl)pyridin-2-yl)oxy)cyclohexyl)-N-methyl-3-(1-methyl-1H-pyrazol-4-yl)-1H-pyrazolo[4,3-c]pyridin-6-amine] | < 10 | < 10 | 10 to 100
11 | CNc1cc2c(cn1)c(-c1cnn(C)c1)nn2[C@H]1CC[C@@H](Oc2cc(Cl)cnc2C#N)CC1 [Example 175, 5-chloro-3-(((1s,4s)-4-(3-(1-methyl-1H-pyrazol-4-yl)-6-(methylamino)-1H-pyrazolo[4,3-c]pyridin-1-yl)cyclohexyl)oxy)picolinonitrile] | < 10 | < 10 | 10 to 100
12 | CCNc1cc2c(cn1)c(-c1cnn(C)c1)nn2[C@H]1CC[C@@H](Oc2cccnc2C(F)(F)F)CC1 [Example 184, N-ethyl-3-(1-methyl-1H-pyrazol-4-yl)-1-((1s,4s)-4-((2-(trifluoromethyl)pyridin-3-yl)oxy)cyclohexyl)-1H-pyrazolo[4,3-c]pyridin-6-amine] | < 10 | < 10 | < 10
13 | CNc1cc2c(cn1)c(-c1cnn(C[C@H](O)CO)c1)nn2[C@H]1CC[C@@H](Oc2cccnc2C(F)(F)F)CC1 [Example 204, (S)-3-(4-(6-(methylamino)-1-((1s,4R)-4-((2-(trifluoromethyl)pyridin-3-yl)oxy)cyclohexyl)-1H-pyrazolo[4,3-c]pyridin-3-yl)-1H-pyrazol-1-yl)propane-1,2-diol hydrochloride] | < 10 | < 10 | < 10
14 | CCNc1cc2c(cn1)c(-c1cnn(CC(CO)CO)c1)nn2[C@H]1CC[C@@H](Oc2cccnc2C(F)(F)F)CC1 [Example 205, 2-((4-(6-(ethylamino)-1-((1s,4s)-4-((2-(trifluoromethyl)pyridin-3-yl)oxy)cyclohexyl)-1H-pyrazolo[4,3-c]pyridin-3-yl)-1H-pyrazol-1-yl)methyl)propane-1,3-diol] | < 10 | < 10 | < 10
15 | CNc1cc2c(cn1)c(-c1cnn(C[C@@H](O)CO)c1)nn2[C@H]1CC[C@@H](Oc2cccnc2C(F)(F)F)CC1 [Example 206, ®-3-(4-(6-(methylamino)-1-((1s,4s)-4-((2-(trifluoromethyl)pyridin-3-yl)oxy)cyclohexyl)-1H-pyrazolo[4,3-c]pyridin-3-yl)-1H-pyrazol-1-yl)propane-1,2-diol] | < 10 | < 10 | < 10
16 | CCNc1cc2c(cn1)c(-c1cnn(C(CO)CO)c1)nn2[C@H]1CC[C@@H](Oc2cccnc2C(F)(F)F)CC1 [Example 207, 2-(4-(6-(ethylamino)-1-((1s,4s)-4-((2-(trifluoromethyl)pyridin-3-yl)oxy)cyclohexyl)-1H-pyrazolo[4,3-c]pyridin-3-yl)-1H-pyrazol-1-yl)propane-1,3-diol] | < 10 | < 10 | < 10
17 | CCNc1cc2c(cn1)c(-c1cnn(C[C@H](O)CO)c1)nn2[C@H]1CC[C@@H](Oc2cccnc2C(F)(F)F)CC1 [Example 208, (S)-3-(4-(6-(ethylamino)-1-((1s,4R)-4-((2-(trifluoromethyl)pyridin-3-yl)oxy)cyclohexyl)-1H-pyrazolo[4,3-c]pyridin-3-yl)-1H-pyrazol-1-yl)propane-1,2-diol] | < 10 | < 10 | < 10
18 | CCNc1cc2c(cn1)c(-c1cnn(C[C@@H](O)CO)c1)nn2[C@H]1CC[C@@H](Oc2cccnc2C(F)(F)F)CC1 [Example 209, ®-3-(4-(6-(ethylamino)-1-((1s,4R)-4-((2-(trifluoromethyl)pyridin-3-yl)oxy)cyclohexyl)-1H-pyrazolo[4,3-c]pyridin-3-yl)-1H-pyrazol-1-yl)propane-1,2-diol] | < 10 | < 10 | < 10
19 | CNc1cc2c(cn1)c(-c1cnn(C(CO)CO)c1)nn2[C@H]1CC[C@@H](Oc2cccnc2C(F)(F)F)CC1 [Example 210, 2-(4-(6-(methylamino)-1-((1 s,4s)-4-((2-(trifluoromethyl)pyridin-3-yl)oxy)cyclohexyl)-1H-pyrazolo[4,3-c]pyridin-3-yl)-1H-pyrazol-1-yl)propane-1,3-diol] | < 10 | < 10 | < 10
20 | CNc1cc2c(cn1)c(-c1cnn(CCS(C)(=O)=O)c1)nn2[C@H]1CC[C@@H](Oc2nccnc2C)CC1 [Example 211, N-methyl-1-((1s,4s)-4-((3-methylpyrazin-2-yl)oxy)cyclohexyl)-3-(1-(2-(methylsulfonyl)ethyl)-1H-pyrazol-4-yl)-1H-pyrazolo[4,3-c]pyridin-6-amine] | < 10 | < 10 | 10 to 100
21 | CNc1cc2c(cn1)c(-c1cnn(C(C)(C)C#N)c1)nn2[C@H]1CC[C@@H](Oc2nccnc2C)CC1 [Example 212, 2-methyl-2-(4-(6-(methylamino)-1-((1s,4s)-4-((3-methylpyrazin-2-yl)oxy)cyclohexyl)-1H-pyrazolo[4,3-c]pyridin-3-yl)-1H-pyrazol-1-yl)propanenitrile] | < 10 | < 10 | 10 to 100
22 | CNc1cc2c(cn1)c(-c1cnn(C3CCN(C)CC3)c1)nn2[C@H]1CC[C@@H](Oc2nccnc2C)CC1 [Example 214, N-methyl-3-(1-(1-methylpiperidin-4-yl)-1H-pyrazol-4-yl)-1-((1s,4s)-4-((3-methylpyrazin-2-yl)oxy)cyclohexyl)-1H-pyrazolo[4,3-c]pyridin-6-amine] | < 10 | < 10 | 10 to 100
23 | CNc1cc2c(cn1)c(-c1cnn(CC3CCOCC3)c1)nn2[C@H]1CC[C@@H](Oc2nccnc2C)CC1 [Example 215, N-methyl-1-((1s,4s)-4-((3-methylpyrazin-2-yl)oxy)cyclohexyl)-3-(1-((tetrahydro-2H-pyran-4-yl)methyl)-1H-pyrazol-4-yl)-1H-pyrazolo[4,3-c]pyridin-6-amine] | < 10 | < 10 | 10 to 100
